This note sets out measurements from ChEMBL document CHEMBL3507680, “University of Dundee, Gates Library screen for HepG2 cell viability”.

The structures appear in SMILES notation.

The data set can be described thus: Human HepG2 cell viability assay in 384 well format. It counts as toxicity, cell-based. Also noted: dose 125 nL, time 70.5 hour; concentration not given beside the values. Particulars: HepG2 cells, read-out: Inhibition.
`Cc1cc(C)n(CC2CN(Cc3cscn3)CCO2)n1` (centres undefined): the cytotoxicity at 70.5 h is -4.76%.
As for `COCCCNC(=O)CN(C)C(=O)c1cc(C)ccc1O`, the cytotoxicity at 70.5 h was -9.64%.
Turning to `Cc1ncc(CNC(=O)CCOc2ccccc2)c(C2CCCN2C)n1` (centres undefined), the cytotoxicity at 70.5 h is -8.4%.
Consider `CCc1ccc(O)c(C(=O)NC2CCN(C(=O)OC)CC2)c1`, for which the cytotoxicity at 70.5 h is -10.9%.
For `Cc1nnc(CN2CCC3(CCC(=O)N([C@H]4CC[C@H](O)CC4)C3)CC2)o1` the value was -8.57%.
For `CCCC(=O)N1CCCC1(C)c1nc(C)no1` (centres undefined) the value was -14.9%; for `CC1=N[C@@]2(CC[C@@H]3CN(CC(C)C)C[C@@H]32)C(=O)N1CC(C)C`, -13.7%.
As for `CC(NC(=O)CN1C=Nc2ccccc2S1(=O)=O)C1CC1` (centres undefined), the cytotoxicity at 70.5 h was 11%.
Consider `O=C(Nc1nc(-c2ccccc2)ns1)N1CCC(F)CC1`, for which the cytotoxicity at 70.5 h is -3.26%.
For `COc1ccccc1CN(C)C(=O)CN1CC(n2nc(C)cc2C)C1` the value was -2.12%; for `CNCc1cn(CC2CCN(Cc3cccs3)CC2)nn1`, 22.5%; for `CCc1cc(NCCS(=O)(=O)N(C)C)nc(N2CCOCC2)n1`, -13.2%.
Take `CCC[C@H]1CN(Cc2cc(C#N)n(C)c2C)C[C@@H]1NS(=O)(=O)CC`: the cytotoxicity at 70.5 h is -6.14%.
For `Cn1cc(C(=O)N2CCN(c3ccccc3)CC2)ccc1=O` the value was -6.86%; for `Cc1cc(C2CCCN(C(=O)c3ccc(Cl)o3)C2)n[nH]1` (centres undefined), -8.12%.
With `Cc1cc(C)n(CC2CN(Cc3nc(C)c(C)o3)CCO2)n1` (centres undefined), the cytotoxicity at 70.5 h is -5.6%.
For `COc1cccc(OC2CN(C(=O)c3c(C)noc3C)C2)c1`, the cytotoxicity at 70.5 h was -9.88%.
For the molecule `O=C1NC2(CCN(Cc3cccnc3)CC2)CC1c1ccncc1` (centres undefined), the cytotoxicity at 70.5 h was -10.6%.
As for `CC(O)CN1CCN(C(=O)CCOc2ccccc2F)CC1` (centres undefined), the cytotoxicity at 70.5 h is -17.1%.
For `O=C(c1cc(Cl)c[nH]1)N1CCN(CCc2ccccn2)CC1` the value was -16%; for `Cn1cccc1C(=O)N1CCC2(CCN2c2ncccn2)C1` (centres undefined), -3.82%.
To `COC(=O)CC(NC(=O)c1cccc(N2CCCC2=O)c1)C(=O)OC` (centres undefined) belongs 0.259%; to `O=C(NCc1ccco1)[C@H]1C[C@H]2OCC[C@H]2N(C(=O)c2ccco2)C1`, -8.55%.
For `O=C(c1cc(Cl)c(Br)[nH]1)N1CCN(Cc2ccco2)CC1` the value was -6.08%; for `Cn1ccnc1CN1CCN(Cc2noc(-c3ccccc3)n2)CC1`, -4.14%.
In the case of `Cc1ncnc2c1CCN(Cc1ccccn1)CC2`, the cytotoxicity at 70.5 h is -4.71%.
For `O=C1CN(C(=O)C2CN(c3cccc(Cl)c3)CCO2)CCN1` (centres undefined) the value was -7.93%; for `COc1ccccc1OCCn1c(C)c(C)oc1=O`, 23.3%; for `Cc1nnc(NCC(c2ccco2)N2CCCCC2)c(C#N)c1C` (centres undefined), -0.616%.
Regarding `O=C(N[C@@H]1CN(Cc2ccsc2)[C@@H]2CCCO[C@@H]21)C1CC1`, the cytotoxicity at 70.5 h was found to be 9.03%.
In the case of `O=C(Cc1cccnc1)N1CCCC(n2cncn2)C1` (centres undefined), the cytotoxicity at 70.5 h was -1.4%.
To `CC(C)N1[C@H](Cn2cccn2)C[C@@H]2CN(C3CCOCC3)CC[C@@H]21` belongs -1.14%; to `CCc1nccn1C1CCCN(C(=O)c2ccc3c(c2)nnn3C)C1` (centres undefined), -5.62%.
For the molecule `CC(C)c1nnc2n1CCN(Cc1nc3c(F)cccc3[nH]1)C2`, the cytotoxicity at 70.5 h is -5.06%.
Take `COc1cccc(CN2CCCCCC2c2cccs2)c1O` (centres undefined): the cytotoxicity at 70.5 h is -6.94%.
To `O=C1CO[C@@H]2CN(Cc3cccs3)C[C@H]2N1Cc1ccncc1` belongs 7.47%.
Take `Cc1nc(CC(=O)NCCNc2nccc(C(F)(F)F)n2)cs1`: the cytotoxicity at 70.5 h was -6.39%.
Take `CN(Cc1cccnc1)[C@@H]1CN(C(=O)CC2CC2)[C@@H]2CCCO[C@H]12`: the cytotoxicity at 70.5 h turned out to be 0.0586%.
`Clc1ccc2cccnc2c1CN1CCCCC1Cn1cncn1` (centres undefined): the cytotoxicity at 70.5 h was -4.31%.
